This is an account of results in ChEMBL document CHEMBL1681747, “Novel second generation analogs of eribulin. Part II: Orally available and active against resistant tumors in vivo” (Bioorg Med Chem Lett, 2011).

The nature of test [1]: Cytotoxicity against human MES-SA cells. The class given is functional, cell-based.
The nature of test [2]: Cytotoxicity against human MES-SA/Dx5-Rx1 cells. The class given is functional, cell-based.
Another test relates to DLD-1. Kind of test: Cytotoxicity against human DLD1 cells. The class given is functional, cell-based.
A further test concerns HCT-15. Kind of test: Cytotoxicity against human HCT15 cells. The class given is functional, cell-based.
In a further test the test system is MES-SA. Kind of test: Fold resistant ratio of IC50 for MES-SA/Dx5-Rx1 cells to IC50 for human MES-SA cells.

With `C=C1C[C@@H]2CC[C@@]34C[C@H]5O[C@H]6[C@@H](O3)[C@H]3O[C@H](CC[C@@H]3O[C@H]6[C@H]5O4)CC(=O)C[C@@H]3[C@@H](OC)[C@@H](C[C@@H](CN4CCN(C(F)(F)F)CC4)OC)O[C@H]3C[C@H]3O[C@@H](CC[C@@H]1O2)C[C@@H](C)C3=C`, the IC50 (as a rule, the concentration that inhibits the measured activity by half) worked out at 0.14 nM in test [1], 0.83 nM in test [2], 0.17 nM in the test with DLD-1 and 0.15 nM in the test with HCT-15. Moreover, the “Ratio IC50” value in the test with MES-SA was 6.03.
The matching figures for `C=CCN(CC=C)CC[C@H]1O[C@H]2C[C@H]3O[C@@H](CC[C@@H]4O[C@@H](CC[C@@]56C[C@H]7O[C@H]8[C@@H](O5)[C@H]5O[C@H](CC[C@@H]5O[C@H]8[C@H]7O6)CC(=O)C[C@@H]2[C@H]1OC)CC4=C)C[C@@H](C)C3=C`: 0.17 nM, 1.15 nM, 0.31 nM, 0.21 nM and 6.57.
The matching figures for `C#CCN(CC#C)C[C@H](C[C@H]1O[C@H]2C[C@H]3O[C@@H](CC[C@@H]4O[C@@H](CC[C@@]56C[C@H]7O[C@H]8[C@@H](O5)[C@H]5O[C@H](CC[C@@H]5O[C@H]8[C@H]7O6)CC(=O)C[C@@H]2[C@H]1OC)CC4=C)C[C@@H](C)C3=C)OC`: 0.13 nM, 0.53 nM, 0.28 nM, 0.17 nM and 3.99.
For `C=C1C[C@@H]2CC[C@@]34C[C@H]5O[C@H]6[C@@H](O3)[C@H]3O[C@H](CC[C@@H]3O[C@H]6[C@H]5O4)CC(=O)C[C@@H]3[C@@H](OC)[C@@H](C[C@@H](CN(C)c4ncccn4)OC)O[C@H]3C[C@H]3O[C@@H](CC[C@@H]1O2)C[C@@H](C)C3=C`, in that order: 2.17 nM, 10.1 nM, 6.9 nM, 5.4 nM and 4.66.
`C=CCN(CC=C)C[C@H](C[C@H]1O[C@H]2C[C@H]3O[C@@H](CC[C@@H]4O[C@@H](CC[C@@]56C[C@H]7O[C@H]8[C@@H](O5)[C@H]5O[C@H](CC[C@@H]5O[C@H]8[C@H]7O6)CC(=O)C[C@@H]2[C@H]1OC)CC4=C)C[C@@H](C)C3=C)OC`: the IC50 in test [1] came out at 0.17 nM; in test [2] it was 1.01 nM; in the test with DLD-1, 0.44 nM; in the test on HCT-15 it was 0.27 nM. In addition, the “Ratio IC50” value with MES-SA is recorded as 6.26.
On to `C=C1C[C@@H]2CC[C@@]34C[C@H]5O[C@H]6[C@@H](O3)[C@H]3O[C@H](CC[C@@H]3O[C@H]6[C@H]5O4)CC(=O)C[C@@H]3[C@@H](OC)[C@@H](CCN4CCOCC4)O[C@H]3C[C@H]3O[C@@H](CC[C@@H]1O2)C[C@@H](C)C3=C`, for which the IC50 with DLD-1 came to 0.23 nM; in the test with HCT-15 it was 0.16 nM.
In the case of `C=C1C[C@@H]2CC[C@@]34C[C@H]5O[C@H]6[C@@H](O3)[C@H]3O[C@H](CC[C@@H]3O[C@H]6[C@H]5O4)CC(=O)C[C@@H]3[C@@H](OC)[C@@H](C[C@H](O)CN4CCOCC4)O[C@H]3C[C@H]3O[C@@H](CC[C@@H]1O2)C[C@@H](C)C3=C`, the IC50 in test [1] came to 0.15 nM; in test [2] it was 7.26 nM; in the test on DLD-1, 0.31 nM; with HCT-15, 0.36 nM. In the test with MES-SA, the “Ratio IC50” value is recorded as 49.82.
In the case of `C=CCN(C)C[C@H](C[C@H]1O[C@H]2C[C@H]3O[C@@H](CC[C@@H]4O[C@@H](CC[C@@]56C[C@H]7O[C@H]8[C@@H](O5)[C@H]5O[C@H](CC[C@@H]5O[C@H]8[C@H]7O6)CC(=O)C[C@@H]2[C@H]1OC)CC4=C)C[C@@H](C)C3=C)OC`, the IC50 stood at 0.07 nM in test [1], 1.95 nM in test [2], 0.23 nM with DLD-1 and 0.22 nM in the test with HCT-15. The “Ratio IC50” value in the test with MES-SA is 29.4.
As to `C=C1C[C@@H]2CC[C@@]34C[C@H]5O[C@H]6[C@@H](O3)[C@H]3O[C@H](CC[C@@H]3O[C@H]6[C@H]5O4)CC(=O)C[C@@H]3[C@@H](OC)[C@@H](CCN4CCC(C(F)(F)F)CC4)O[C@H]3C[C@H]3O[C@@H](CC[C@@H]1O2)C[C@@H](C)C3=C`, the IC50 stood at 0.22 nM with DLD-1 and 0.14 nM in the test on HCT-15.
`C#CCN(CC#C)CC[C@H]1O[C@H]2C[C@H]3O[C@@H](CC[C@@H]4O[C@@H](CC[C@@]56C[C@H]7O[C@H]8[C@@H](O5)[C@H]5O[C@H](CC[C@@H]5O[C@H]8[C@H]7O6)CC(=O)C[C@@H]2[C@H]1OC)CC4=C)C[C@@H](C)C3=C`: the IC50 was 0.69 nM in test [1], 3.99 nM in test [2], 1.42 nM in the test with DLD-1 and 0.89 nM with HCT-15. Moreover, in the test with MES-SA, the “Ratio IC50” value turned out to be 5.65.
For `C=C1C[C@@H]2CC[C@@]34C[C@H]5O[C@H]6[C@@H](O3)[C@H]3O[C@H](CC[C@@H]3O[C@H]6[C@H]5O4)CC(=O)C[C@@H]3[C@@H](OC)[C@@H](CCN)O[C@H]3C[C@H]3O[C@@H](CC[C@@H]1O2)C[C@@H](C)C3=C`, in that order: 0.17 nM, 47.6 nM, 4.67 nM, 8.57 nM and 288.17.
The matching figures for `C=C1C[C@@H]2CC[C@@]34C[C@H]5O[C@H]6[C@@H](O3)[C@H]3O[C@H](CC[C@@H]3O[C@H]6[C@H]5O4)CC(=O)C[C@@H]3[C@@H](OC)[C@@H](C[C@@H](CN4C[C@H]4C)OC)O[C@H]3C[C@H]3O[C@@H](CC[C@@H]1O2)C[C@@H](C)C3=C` (stereo partly drawn): 0.16 nM, 2.79 nM, 0.53 nM, 0.78 nM and 18.04.
Turning to `C=C(C)CN(CC)C[C@H](C[C@H]1O[C@H]2C[C@H]3O[C@@H](CC[C@@H]4O[C@@H](CC[C@@]56C[C@H]7O[C@H]8[C@@H](O5)[C@H]5O[C@H](CC[C@@H]5O[C@H]8[C@H]7O6)CC(=O)C[C@@H]2[C@H]1OC)CC4=C)C[C@@H](C)C3=C)OC`, the IC50 was 0.51 nM in the test with DLD-1 and 0.34 nM in the test with HCT-15.
Regarding `C=C1C[C@@H]2CC[C@@]34C[C@H]5O[C@H]6[C@@H](O3)[C@H]3O[C@H](CC[C@@H]3O[C@H]6[C@H]5O4)CC(=O)C[C@@H]3[C@@H](OC)[C@@H](C[C@@H](CN4CCN(S(=O)(=O)c5ccc(C)cc5)CC4)OC)O[C@H]3C[C@H]3O[C@@H](CC[C@@H]1O2)C[C@@H](C)C3=C`, the IC50 in test [1] was 3.16 nM; in test [2] it was 39.1 nM; in the test on DLD-1, 0.99 nM; in the test on HCT-15, 0.62 nM. Further, the “Ratio IC50” value with MES-SA is 12.35.
As for `C=C1C[C@@H]2CC[C@@]34C[C@H]5O[C@H]6[C@@H](O3)[C@H]3O[C@H](CC[C@@H]3O[C@H]6[C@H]5O4)CC(=O)C[C@@H]3[C@@H](OC)[C@@H](C[C@@H](CNCC(=O)OCCCC)OC)O[C@H]3C[C@H]3O[C@@H](CC[C@@H]1O2)C[C@@H](C)C3=C`, the IC50 in test [1] is 0.28 nM; in test [2], 1.6 nM; in the test on DLD-1, 0.58 nM; in the test on HCT-15, 0.37 nM. Also, the “Ratio IC50” value in the test with MES-SA is given as 5.83.
Take `C=C(C)CN(CC)CC[C@H]1O[C@H]2C[C@H]3O[C@@H](CC[C@@H]4O[C@@H](CC[C@@]56C[C@H]7O[C@H]8[C@@H](O5)[C@H]5O[C@H](CC[C@@H]5O[C@H]8[C@H]7O6)CC(=O)C[C@@H]2[C@H]1OC)CC4=C)C[C@@H](C)C3=C`: the IC50 in the test on DLD-1 was 0.61 nM; in the test on HCT-15 it was 0.46 nM.
As to `C=C1C[C@@H]2CC[C@@]34C[C@H]5O[C@H]6[C@@H](O3)[C@H]3O[C@H](CC[C@@H]3O[C@H]6[C@H]5O4)CC(=O)C[C@@H]3[C@@H](OC)[C@@H](C[C@@H](CN4CCN(C(=O)OCC)CC4)OC)O[C@H]3C[C@H]3O[C@@H](CC[C@@H]1O2)C[C@@H](C)C3=C`, the IC50 in test [1] was determined as 0.08 nM; in test [2] it was 3.05 nM. For the same compound, in the test with MES-SA, the “Ratio IC50” value worked out at 38.1.
For `C=C1C[C@@H]2CC[C@@]34C[C@H]5O[C@H]6[C@@H](O3)[C@H]3O[C@H](CC[C@@H]3O[C@H]6[C@H]5O4)CC(=O)C[C@@H]3[C@@H](OC)[C@@H](C[C@@H](CN4C[C@@H]4C)OC)O[C@H]3C[C@H]3O[C@@H](CC[C@@H]1O2)C[C@@H](C)C3=C` (stereo partly drawn), the IC50 was 0.13 nM in test [1], 2.23 nM in test [2], 0.47 nM in the test on DLD-1 and 0.67 nM in the test on HCT-15. Besides, in the test with MES-SA, the “Ratio IC50” value is reported as 18.26.
In the case of `C#CCN(C)C[C@H](C[C@H]1O[C@H]2C[C@H]3O[C@@H](CC[C@@H]4O[C@@H](CC[C@@]56C[C@H]7O[C@H]8[C@@H](O5)[C@H]5O[C@H](CC[C@@H]5O[C@H]8[C@H]7O6)CC(=O)C[C@@H]2[C@H]1OC)CC4=C)C[C@@H](C)C3=C)OC`, the IC50 was 0.31 nM in the test with DLD-1 and 0.19 nM in the test on HCT-15.
